Our source for the GI50 and TGI values is PubChem BioAssay (NCI).

“And” between values parts separate entries of the source, which are not always exact repeats. Equal values may be shown once.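 Dose response: 5 concentrations. Exposure: 48 h. Format: 96-well plates. Endpoint: linear interpolation; highest concentration if not reached. At the GI50, growth is halved. TGI marks complete inhibition of growth.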 A value given as a limit tells only on which side of the number the result lay.

Some test systems named below: A549 NSCLC; ACHN renal; EKVX NSCLC; HCT-116 colon; HOP-92 NSCLC; MALME-3M melanoma; SK-MEL-28 melanoma; UACC-257 melanoma; HT29 colon; SK-MEL-5 melanoma.
What all share (experiment): DTP human tumour cell line panel, 48 h

What is called GI50 is the concentration giving 50% growth inhibition. By TGI is commonly meant the concentration at which net growth stops. Low readings indicate greater sensitivity of the cells, high ones lower sensitivity of the cells. Turning to `O=C(N/N=C/c1cc(Cl)cc(Cl)c1[O-])c1ccccc1O.O=C(N/N=C/c1cc(Cl)cc(Cl)c1[O-])c1ccccc1O.[Fe+2]`, the GI50 in the assay with A549 NSCLC was 10.2 µM; with EKVX NSCLC it was 18.1 µM; in the assay with HCT-116 colon it was 11.4 µM; with HOP-92 NSCLC, 3.4 µM; in the assay on MALME-3M melanoma, 22 µM. In addition, the TGI in the assay with A549 NSCLC was 35.2 µM; with ACHN renal, 27.7 µM; in the assay with EKVX NSCLC, 41.9 µM; in the assay on HCT-116 colon it was 72.7 µM; with HOP-92 NSCLC, 8.33 µM; in the assay on MALME-3M melanoma, 61.9 µM. Moreover, the concentration for total growth inhibition (TGI) with SK-MEL-28 melanoma stood at 40.6 µM; in the assay with UACC-257 melanoma it was 85.8 µM.

As to `CCN(CC)CCCNC(=O)c1ccccc1Nc1c(Cl)cccc1Cl`, the TGI in the assay on A549 NSCLC was found to be 31.5 µM; with ACHN renal, 21.8 µM; in the assay with EKVX NSCLC, 25 µM; with HCT-116 colon it was 23.6 µM; with HT29 colon, 16.5 µM; with SK-MEL-28 melanoma it was 9.51 µM. The TGI in the assay on SK-MEL-5 melanoma amounted to 10.7 µM; in the assay on UACC-257 melanoma, 7.45 µM.

For the compound `O=C(N/N=C/c1cc(Cl)cc(Cl)c1[O-])c1ccccc1O.O=C(N/N=C/c1cc(Cl)cc(Cl)c1[O-])c1ccccc1O.[Cu+2]`, the GI50 was 0.385 µM in the assay with A549 NSCLC, 0.255 µM in the assay on HCT-116 colon, 0.224 µM in the assay on HOP-92 NSCLC and 0.367 µM in the assay on MALME-3M melanoma. For the same compound, the total growth inhibition concentration (TGI) turned out to be 1.65 µM with A549 NSCLC; 1.57 µM with ACHN renal; 0.597 µM in the assay with HCT-116 colon; 0.671 µM with HOP-92 NSCLC; 2.06 µM in the assay on HT29 colon; 1.38 µM in the assay with MALME-3M melanoma. Moreover, the figures for the TGI in the assay with SK-MEL-28 melanoma, with SK-MEL-5 melanoma and in the assay on UACC-257 melanoma were 8.79 µM, 0.966 µM and 0.914 µM, respectively.

As for `CC(=O)C(C(=O)C(=O)Nc1cc(Cl)c(Cl)cc1Cl)c1csc(N)n1` (stereo not drawn), the TGI in the assay with A549 NSCLC, with ACHN renal, with EKVX NSCLC, in the assay on HCT-116 colon, with HOP-92 NSCLC and in the assay on HT29 colon was over 100 µM throughout. In addition, the TGI in the assay with SK-MEL-28 melanoma, with SK-MEL-5 melanoma and in the assay with UACC-257 melanoma was over 100 µM each time.

`Cn1cc(-c2csc(-c3cn(CCCN4CCCCC4)c4ccc(Br)cc34)n2)c2cccnc21`: the GI50 with ACHN renal is 1.65 µM; in the assay on HOP-92 NSCLC, 1.79 µM; in the assay on MALME-3M melanoma, 1.58 µM; in the assay with SK-MEL-28 melanoma, 1.71 µM; with SK-MEL-5 melanoma, 1.86 µM; with UACC-257 melanoma, 1.8 µM. The TGI in the assay with ACHN renal worked out at 3 µM; in the assay with HOP-92 NSCLC, 3.63 µM; in the assay with MALME-3M melanoma it was 3.16 µM; in the assay on SK-MEL-28 melanoma it was 3.2 µM; in the assay with SK-MEL-5 melanoma it was 3.41 µM; with UACC-257 melanoma it was 3.43 µM.

Turning to `CC(=O)OC1(C)CC(C)C(=O)C(C(O)CC2CC(=O)NC(=O)C2)C1` (stereo not drawn), the TGI in the assay with A549 NSCLC was 0.936 µM and 3.32 µM; in the assay with ACHN renal, 0.131 µM and 0.107 µM; with EKVX NSCLC, 0.37 µM and 0.631 µM; with HOP-92 NSCLC it was 0.0121 µM; in the assay on HT29 colon, 0.133 µM; in the assay with MALME-3M melanoma, 0.375 µM and 0.753 µM. The TGI in the assay on SK-MEL-28 melanoma was 0.134 µM and 0.688 µM; with SK-MEL-5 melanoma, 0.147 µM and 0.023 µM; in the assay on UACC-257 melanoma, 0.348 µM and 0.145 µM.

As for `O=[N+]([O-])c1cc(C(F)(F)F)cc2c1SC1=Nc3ccccc3CN12`, the TGI with A549 NSCLC, in the assay with EKVX NSCLC, in the assay with HCT-116 colon, in the assay with HOP-92 NSCLC, in the assay on HT29 colon and in the assay on MALME-3M melanoma was over 100 µM each time. The TGI in the assay on SK-MEL-28 melanoma, in the assay with SK-MEL-5 melanoma and in the assay with UACC-257 melanoma was over 100 µM throughout.

As to `CCCCCC1CC(C(C)=O)CN1c1ccc(F)cc1` (stereo not drawn), the TGI is over 100 µM in the assay on A549 NSCLC; over 100 µM in the assay with ACHN renal; over 100 µM in the assay on EKVX NSCLC; over 100 µM with HCT-116 colon; 83.6 µM with HOP-92 NSCLC; over 100 µM in the assay on HT29 colon. Further, the TGI was over 100 µM with MALME-3M melanoma, over 100 µM with SK-MEL-28 melanoma, 38.3 µM with SK-MEL-5 melanoma and over 100 µM in the assay with UACC-257 melanoma.

Regarding `CCn1c(=O)c2c3ccc(O)cc3[nH]c2c2ccc(O)cc21`, the TGI in the assay on A549 NSCLC, with ACHN renal, with EKVX NSCLC, with HCT-116 colon, with HOP-92 NSCLC and with HT29 colon was over 100 µM each time. Further, the TGI in the assay with MALME-3M melanoma, with SK-MEL-28 melanoma, in the assay on SK-MEL-5 melanoma and in the assay with UACC-257 melanoma was over 100 µM throughout.
